Data published in ChEMBL document CHEMBL1201862, “PubChem BioAssay data set” (2004).
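Tested at 5 concentrations; 48 h exposure; 96-well plates; endpoints linearly interpolated, else capped at highest concentration. The concentration for 50% growth inhibition is given as GI50.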 Active and inactive are the calls of the source. Rule as the data show it: active = GI50 up to about 1.1 µM and inactive = higher.

Key:
Test in all cases: NCI tumour cell line growth inhibition, 48 h
786-0 = system: 786-0
A498 = system: A498
A549 = system: A549
ACHN = system: ACHN
BT-549 = system: BT-549
CCRF-CEM = system: CCRF-CEM
COLO 205 = system: COLO 205
DU-145 = system: DU-145
EKVX = system: EKVX
HCC 2998 = system: HCC 2998
HCT-116 = system: HCT-116
HCT-15 = system: HCT-15
HL-60 = system: HL-60
HOP-62 = system: HOP-62
HOP-92 = system: HOP-92
HT-29 = system: HT-29
Hs-578T = system: Hs-578T
IGROV-1 = system: IGROV-1
K562 = system: K562
KM12 = system: KM12
LOX IMVI = system: LOX IMVI
M14 = system: M14
MCF7 = system: MCF7
MDA-MB-231 = system: MDA-MB-231
MDA-MB-435 = system: MDA-MB-435
MDA-N = system: MDA-N
MOLT-4 = system: MOLT-4
Malme-3M = system: Malme-3M
NCI-H226 = system: NCI-H226
NCI-H23 = system: NCI-H23
NCI-H460 = system: NCI-H460
NCI-H522 = system: NCI-H522
NCI/ADR-RES = system: NCI/ADR-RES
OVCAR-3 = system: OVCAR-3
OVCAR-4 = system: OVCAR-4
OVCAR-8 = system: OVCAR-8
PC-3 = system: PC-3
RPMI-8226 = system: RPMI-8226
RXF 393 = system: RXF 393
SF-268 = system: SF-268
SF-295 = system: SF-295
SF-539 = system: SF-539
SK-MEL-28 = system: SK-MEL-28
SK-OV-3 = system: SK-OV-3
SN12C = system: SN12C
SNB-75 = system: SNB-75
SR = system: SR
SW-620 = system: SW-620
T47D = system: T47D
TK-10 = system: TK-10
U-251 = system: U-251
UACC-257 = system: UACC-257
UACC-62 = system: UACC-62
UO-31 = system: UO-31
CAKI-1 = system: CAKI-1
OVCAR-5 = system: OVCAR-5
SK-MEL-2 = system: SK-MEL-2
SK-MEL-5 = system: SK-MEL-5
SNB-19 = system: SNB-19

For `CCc1c(N=[N+]=[N-])c2ccccc2oc1=O`, the GI50 (786-0) was > 100 µM (inactive), the GI50 (A498) was > 100 µM (inactive) and the GI50 (A549) was > 100 µM (inactive). The GI50 (ACHN) was > 100 µM (inactive), the GI50 (BT-549) was > 100 µM (inactive) and the GI50 (CCRF-CEM) was > 100 µM (inactive). For the same compound, the GI50 (COLO 205) was > 100 µM (inactive), the GI50 (DU-145) was > 100 µM (inactive) and the GI50 (EKVX) was 36.3 µM (inactive). For the same compound, the GI50 (HCC 2998) was > 100 µM (inactive), the GI50 (HCT-116) was > 100 µM (inactive) and the GI50 (HCT-15) was > 100 µM. The GI50 (HL-60) was > 100 µM (inactive), the GI50 (HOP-62) was > 100 µM (inactive) and the GI50 (HOP-92) was > 100 µM (inactive). For the same compound, the GI50 (HT-29) was > 100 µM (inactive), the GI50 (Hs-578T) was 49.8 µM (inactive) and the GI50 (IGROV-1) was 49.7 µM (inactive). The GI50 (K562) was > 100 µM (inactive), the GI50 (KM12) was > 100 µM (inactive) and the GI50 (LOX IMVI) was > 100 µM (inactive). For the same compound, the GI50 (M14) was > 100 µM (inactive), the GI50 (MCF7) was > 100 µM (inactive) and the GI50 (MDA-MB-231) was > 100 µM (inactive). For the same compound, the GI50 (MDA-MB-435) was > 100 µM (inactive), the GI50 (MDA-N) was > 100 µM (inactive) and the GI50 (MOLT-4) was > 100 µM (inactive). For the same compound, the GI50 (Malme-3M) was > 100 µM (inactive), the GI50 (NCI-H226) was > 100 µM (inactive) and the GI50 (NCI-H23) was > 100 µM (inactive). For the same compound, the GI50 (NCI-H460) was > 100 µM (inactive), the GI50 (NCI-H522) was > 100 µM (inactive) and the GI50 (NCI/ADR-RES) was > 100 µM (inactive). For the same compound, the GI50 (OVCAR-3) was > 100 µM (inactive), the GI50 (OVCAR-4) was > 100 µM (inactive) and the GI50 (OVCAR-8) was > 100 µM (inactive). The GI50 (PC-3) was > 100 µM (inactive), the GI50 (RPMI-8226) was > 100 µM (inactive) and the GI50 (RXF 393) was > 100 µM (inactive). For the same compound, the GI50 (SF-268) was > 100 µM (inactive), the GI50 (SF-295) was > 100 µM (inactive) and the GI50 (SF-539) was > 100 µM (inactive). The GI50 (SK-MEL-28) was > 100 µM (inactive), the GI50 (SK-OV-3) was > 100 µM (inactive) and the GI50 (SN12C) was > 100 µM (inactive). The GI50 (SNB-75) was 69.3 µM (inactive), the GI50 (SR) was > 100 µM (inactive) and the GI50 (SW-620) was > 100 µM (inactive). The GI50 (T47D) was > 100 µM (inactive), the GI50 (TK-10) was > 100 µM (inactive) and the GI50 (U-251) was > 100 µM (inactive). The GI50 (UACC-257) was > 100 µM (inactive), the GI50 (UACC-62) was > 100 µM (inactive) and the GI50 (UO-31) was > 100 µM (inactive).
In the case of `COC(C(O)CO)C(O)C(O)C(=O)NNc1ccccc1` (stereo unspecified), the GI50 (786-0) is reported as > 100 µM (inactive), the GI50 (A498) is reported as > 100 µM (inactive) and the GI50 (A549) is reported as > 100 µM (inactive). The GI50 (ACHN) was > 100 µM (inactive), the GI50 (BT-549) was > 100 µM (inactive) and the GI50 (CAKI-1) was 18.6 µM (inactive). The GI50 (CCRF-CEM) was 42.7 µM (inactive), the GI50 (COLO 205) was 11.7 µM (inactive) and the GI50 (DU-145) was > 100 µM (inactive). For the same compound, the GI50 (EKVX) was 21.7 µM (inactive), the GI50 (HCC 2998) was > 100 µM (inactive) and the GI50 (HCT-116) was > 100 µM (inactive). For the same compound, the GI50 (HCT-15) was > 100 µM, the GI50 (HL-60) was 6.32 µM (inactive) and the GI50 (HOP-62) was > 100 µM (inactive). The GI50 (HOP-92) was > 100 µM (inactive), the GI50 (HT-29) was > 100 µM (inactive) and the GI50 (Hs-578T) was > 100 µM (inactive). For the same compound, the GI50 (IGROV-1) was 47.4 µM (inactive), the GI50 (K562) was 4.05 µM (inactive) and the GI50 (KM12) was 23.6 µM (inactive). For the same compound, the GI50 (LOX IMVI) was 2.92 µM (inactive), the GI50 (M14) was 57.7 µM (inactive) and the GI50 (MCF7) was 39.2 µM (inactive). The GI50 (MDA-MB-231) was > 100 µM (inactive), the GI50 (MDA-MB-435) was 40.3 µM (inactive) and the GI50 (MDA-N) was 20 µM (inactive). For the same compound, the GI50 (MOLT-4) was > 100 µM (inactive), the GI50 (Malme-3M) was > 100 µM (inactive) and the GI50 (NCI-H23) was > 100 µM (inactive). The GI50 (NCI-H460) was 9.46 µM (inactive), the GI50 (NCI-H522) was > 100 µM (inactive) and the GI50 (NCI/ADR-RES) was 16.5 µM (inactive). The GI50 (OVCAR-3) was > 100 µM (inactive), the GI50 (OVCAR-5) was > 100 µM (inactive) and the GI50 (OVCAR-8) was > 100 µM (inactive). The GI50 (PC-3) was > 100 µM (inactive), the GI50 (RPMI-8226) was 47.5 µM (inactive) and the GI50 (RXF 393) was > 100 µM (inactive). The GI50 (SF-268) was 23.3 µM (inactive), the GI50 (SF-295) was 21 µM (inactive) and the GI50 (SF-539) was 22.4 µM (inactive). The GI50 (SK-MEL-28) was > 100 µM (inactive), the GI50 (SK-MEL-2) was 38.9 µM (inactive) and the GI50 (SK-MEL-5) was 37.2 µM (inactive). The GI50 (SK-OV-3) was > 100 µM (inactive), the GI50 (SN12C) was > 100 µM (inactive) and the GI50 (SNB-19) was > 100 µM (inactive). The GI50 (SNB-75) was > 100 µM (inactive), the GI50 (SR) was > 100 µM (inactive) and the GI50 (SW-620) was 8.49 µM (inactive). The GI50 (T47D) was 23.2 µM (inactive), the GI50 (TK-10) was > 100 µM (inactive) and the GI50 (U-251) was > 100 µM (inactive). The GI50 (UACC-257) was > 100 µM (inactive), the GI50 (UACC-62) was 5.33 µM (inactive) and the GI50 (UO-31) was > 100 µM (inactive).
For `Cn1c(CCC2(C)Cc3ccccc3C(=O)O2)cc2ccccc2c1=O` (stereo unspecified), the GI50 (786-0) was 96.6 µM (inactive), the GI50 (A498) was 25.1 µM (inactive) and the GI50 (A549) was 31.2 µM (inactive). The GI50 (BT-549) was 21.8 µM (inactive), the GI50 (CAKI-1) was 13.9 µM (inactive) and the GI50 (CCRF-CEM) was 12.7 µM (inactive). The GI50 (COLO 205) was 27.1 µM (inactive), the GI50 (DU-145) was 23.7 µM (inactive) and the GI50 (HCC 2998) was 34.4 µM (inactive). For the same compound, the GI50 (HCT-15) was 33.7 µM, the GI50 (HL-60) was 27.2 µM (inactive) and the GI50 (HOP-62) was 18.5 µM (inactive). For the same compound, the GI50 (HOP-92) was 57.5 µM (inactive), the GI50 (Hs-578T) was 37.7 µM (inactive) and the GI50 (IGROV-1) was 27.3 µM (inactive). For the same compound, the GI50 (K562) was 2.96 µM (inactive), the GI50 (KM12) was 4.66 µM (inactive) and the GI50 (M14) was 16.4 µM (inactive). The GI50 (MCF7) was 24.2 µM (inactive), the GI50 (MDA-MB-231) was 45.1 µM (inactive) and the GI50 (MDA-MB-435) was 19.4 µM (inactive). For the same compound, the GI50 (MDA-N) was 22.6 µM (inactive), the GI50 (MOLT-4) was > 10 µM (inactive) and the GI50 (Malme-3M) was 35.2 µM (inactive). The GI50 (NCI-H226) was 22 µM (inactive), the GI50 (NCI-H23) was 24.7 µM (inactive) and the GI50 (NCI-H460) was 24.8 µM (inactive). For the same compound, the GI50 (NCI-H522) was 16.4 µM (inactive), the GI50 (NCI/ADR-RES) was 26.3 µM (inactive) and the GI50 (OVCAR-3) was 21 µM (inactive). For the same compound, the GI50 (OVCAR-4) was 36 µM (inactive), the GI50 (OVCAR-5) was 32.8 µM (inactive) and the GI50 (OVCAR-8) was > 100 µM (inactive). The GI50 (PC-3) was 17.7 µM (inactive), the GI50 (RPMI-8226) was 17.3 µM (inactive) and the GI50 (RXF 393) was 10.2 µM (inactive). The GI50 (SF-295) was > 100 µM (inactive), the GI50 (SF-539) was 43.1 µM (inactive) and the GI50 (SK-MEL-28) was 28.8 µM (inactive). The GI50 (SK-MEL-2) was 24.2 µM (inactive), the GI50 (SK-MEL-5) was 17.2 µM (inactive) and the GI50 (SK-OV-3) was 30.5 µM (inactive). For the same compound, the GI50 (SN12C) was 44 µM (inactive), the GI50 (SNB-19) was 55.6 µM (inactive) and the GI50 (SNB-75) was 22.4 µM (inactive). The GI50 (SR) was 34.4 µM (inactive), the GI50 (T47D) was 24.3 µM (inactive) and the GI50 (U-251) was 45.5 µM (inactive). The GI50 (UACC-62) was > 10 µM (inactive) and the GI50 (UO-31) was 15.7 µM (inactive).
